Counter-ions that a name gives are not always drawn.
Tests used:
[1] = target: T1, Dopamine, D2S (human recombinant) (Homo sapiens, UniProt P14416); test: Dopamine, D2S (human recombinant) radioligand binding assay ([3H]Spiperone); conditions: human recombinant in CHO cells
T1 construct: expressed in transfected cells; host or cells: CHO cells
Protocol: The reactions were carried out in 50 mM TRIS-HCl (pH 7.4) containing 120 mM NaCl, 5 mM KCl, 5 mM MgCl2, 1 mM EDTA for 60 minutes at 25 C. The reaction was terminated by rapid vacuum filtration onto glass fiber filters. Radioactivity trapped onto the filters was determined and compared to control values in order to ascertain any interactions of test compounds with the cloned dopamine-D2 short binding site (Literature Reference: Jarvis, K. R. et al. Journal of Receptor Research 1993, 13(1-4), 573-590; Gundlach, A. L. et al. Life Sciences 1984, 35, 1981-1988.)
(§1) The radioligand binding assays for dopamine-D2S and serotonin-5HT1A were carried out at six different concentrations and the test concentrations were 1 nM, 5 nM, 10 nm 50 nM, 100 nM and 500 nM. The radioligand binding assays for serotonin-5HT2A were carried out at seven different concentrations and the test concentrations were 5 nM, 10 nM, 50 nM, 100 nM, 500 nM, 1 uM, and 300 uM.

[2] = target: T2, Serotonin, 5HT1A (human recombinant) (Homo sapiens, UniProt P08908); test: Serotonin, 5HT1A (human recombinant) radioligand binding assay ([3H]-8-OH-DPAT); conditions: human recombinant in HEK-293 cells
T2 construct: expressed in transfected cells; host or cells: HEK-293 cells
T2 sequence (P08908 1-422): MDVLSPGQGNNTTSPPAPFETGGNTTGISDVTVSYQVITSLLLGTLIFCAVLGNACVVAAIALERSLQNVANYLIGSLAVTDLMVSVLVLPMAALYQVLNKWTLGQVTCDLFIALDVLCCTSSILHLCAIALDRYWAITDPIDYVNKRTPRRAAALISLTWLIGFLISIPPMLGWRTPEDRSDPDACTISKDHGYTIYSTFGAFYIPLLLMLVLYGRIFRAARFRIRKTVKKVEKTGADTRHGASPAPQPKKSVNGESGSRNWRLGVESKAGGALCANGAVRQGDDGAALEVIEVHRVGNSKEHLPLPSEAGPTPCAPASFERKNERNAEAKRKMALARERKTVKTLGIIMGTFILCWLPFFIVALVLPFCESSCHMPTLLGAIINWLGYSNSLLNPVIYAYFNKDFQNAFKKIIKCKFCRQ
Protocol: The reactions were carried out in 50 mM TRIS-HCl (pH 7.4) containing 10 mM MgSO4, 0.5 mM EDTA and 0.1% Ascorbic acid at room temperature for 1 hour. The reaction was terminated by rapid vacuum filtration onto glass fiber filters. Radioactivity trapped onto the filters was determined and compared to control values in order to ascertain any interactions of test compounds with the cloned serotonin-5HT1A binding site (Literature Reference: Hoyer, D. et al. Eur. Journal Pharmacol. 1985, 118, 13-23; Schoeffter, P. and Hoyer, D. Naunyn-Schmiedeberg's Arch. Pharmac. 1989, 340, 135-138)
as §1

[3] = target: Serotonin, 5HT2A (human) (Homo sapiens, UniProt P28223); test: Serotonin, 5HT2A (human) radioligand binding assay ([3H]-Ketanserin); conditions: human cortex
Chain of Serotonin, 5HT2A (human) (P28223 whole entry): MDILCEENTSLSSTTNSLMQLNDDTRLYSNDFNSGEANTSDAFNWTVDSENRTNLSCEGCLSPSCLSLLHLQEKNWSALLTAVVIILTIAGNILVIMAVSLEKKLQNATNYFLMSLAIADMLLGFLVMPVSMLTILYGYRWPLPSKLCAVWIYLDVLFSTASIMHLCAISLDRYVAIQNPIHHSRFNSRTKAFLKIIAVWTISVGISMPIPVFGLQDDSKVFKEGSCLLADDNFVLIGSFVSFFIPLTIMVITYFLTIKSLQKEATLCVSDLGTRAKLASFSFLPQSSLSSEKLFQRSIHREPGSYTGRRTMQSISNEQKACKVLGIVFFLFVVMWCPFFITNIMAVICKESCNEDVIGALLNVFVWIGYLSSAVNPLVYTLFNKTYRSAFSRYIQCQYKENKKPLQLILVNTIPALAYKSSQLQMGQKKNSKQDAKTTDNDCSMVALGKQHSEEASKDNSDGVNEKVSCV
Protocol: The reactions were carried out in 50 mM TRIS-HCl (pH 7.6) at room temperature for 90 minutes. The reaction was terminated by rapid vacuum filtration onto glass fiber filters. Radioactivity trapped onto the filters was determined and compared to control values in order to ascertain any interactions of test compounds with the serotonin-5HT2A binding site (Literature Reference: Leysen, J. E. et al. Mol. Pharmacol. 1982, 21, 301-314; Martin, G. R. and Humphrey, P. P. A. Neuropharmacol. 1994, 33(3/4), 261-273.)
as §1

T1 sequence (P14416 1-414 isoform P14416-2): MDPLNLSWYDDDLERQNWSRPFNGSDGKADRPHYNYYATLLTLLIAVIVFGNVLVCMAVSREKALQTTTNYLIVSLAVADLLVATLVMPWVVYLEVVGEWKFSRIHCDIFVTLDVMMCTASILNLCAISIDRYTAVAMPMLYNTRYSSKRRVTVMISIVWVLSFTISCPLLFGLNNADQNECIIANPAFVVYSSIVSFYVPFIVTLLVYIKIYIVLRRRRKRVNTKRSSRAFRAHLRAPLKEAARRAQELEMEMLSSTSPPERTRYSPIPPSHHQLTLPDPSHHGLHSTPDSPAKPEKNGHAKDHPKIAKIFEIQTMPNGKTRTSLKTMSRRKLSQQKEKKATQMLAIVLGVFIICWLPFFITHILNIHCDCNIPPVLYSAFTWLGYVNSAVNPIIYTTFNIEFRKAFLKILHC

| IC50 [1] [nM] | Ki [1] [nM] | IC50 [2] [nM] | Ki [2] [nM] | IC50 [3] [nM] | Ki [3] [nM] | Structure (SMILES) |
| --- | --- | --- | --- | --- | --- | --- |
| 5.83 | 1.69 | 6.61 | 3.93 | 456 | 239 | CCOC(=O)CCCOc1ccccc1N1CCN(CCCCOc2ccc3c(c2)NC(=O)CC3)CC1 [Compound 9a, Ethyl 4-(2-(4-(4-(2-oxo-1,2,3,4-tetrahydroquinolin-7-yloxy)butyl)piperazin-1-yl)phenoxy)butanoat hydrochloride] |
| 72.9 | 17 | 28 | 16 | 253 | 147 | O=C1CCc2ccc(C(=O)OCCCN3CCN(c4cccc(Cl)c4Cl)CC3)cc2N1 [Compound 24b, 3-(4-(2,3-Dichlorophenyl)piperazin-1-yl)propyl 2-oxo-1,2,3,4-tetrahydroquinoline-7-carboxylate hydrochloride] |

| Structure (SMILES) | IC50 [1] [nM] | Ki [1] [nM] | IC50 [2] [nM] | Ki [2] [nM] | IC50 [3] [nM] | Ki [3] [nM] |
| --- | --- | --- | --- | --- | --- | --- |
| O=C1CCc2ccc(COC(=O)CCCN3CCN(c4cccc(Cl)c4Cl)CC3)cc2N1 [Compound 39d, (2-Oxo-1,2,3,4-tetrahydroquinolin-7-yl)methyl 4-(4-(2,3-dichlorophenyl)piperazin-1-yl)butanoate] | 54.7 | 12.8 | 85 | 48.5 | 313 | 171 |

— US8247420B2, “Compositions, synthesis, and methods of using quinolinone based atypical antipsychotic agents” (Reviva Pharmaceuticals, Inc., priority 2007, dated 2012)
